Where a SMILES comes first, the peptide text is derived from it. [ ]: non-standard residue; d: D form. The star is where a group is joined. Nle(5E-ene,6-CO2Et) = CCOC(=O)/C=C/CC[C@H](N)C(=O)O; Cbz = O=C(OCc1ccccc1)*
Columns and labels:
Type in all cases: biochemical
FXIII = target: T1, FXIII (Homo sapiens, UniProt P00488); test: Transglutaminase inhibition, IC50 at FXIII
T1 sequence (P00488 1-732): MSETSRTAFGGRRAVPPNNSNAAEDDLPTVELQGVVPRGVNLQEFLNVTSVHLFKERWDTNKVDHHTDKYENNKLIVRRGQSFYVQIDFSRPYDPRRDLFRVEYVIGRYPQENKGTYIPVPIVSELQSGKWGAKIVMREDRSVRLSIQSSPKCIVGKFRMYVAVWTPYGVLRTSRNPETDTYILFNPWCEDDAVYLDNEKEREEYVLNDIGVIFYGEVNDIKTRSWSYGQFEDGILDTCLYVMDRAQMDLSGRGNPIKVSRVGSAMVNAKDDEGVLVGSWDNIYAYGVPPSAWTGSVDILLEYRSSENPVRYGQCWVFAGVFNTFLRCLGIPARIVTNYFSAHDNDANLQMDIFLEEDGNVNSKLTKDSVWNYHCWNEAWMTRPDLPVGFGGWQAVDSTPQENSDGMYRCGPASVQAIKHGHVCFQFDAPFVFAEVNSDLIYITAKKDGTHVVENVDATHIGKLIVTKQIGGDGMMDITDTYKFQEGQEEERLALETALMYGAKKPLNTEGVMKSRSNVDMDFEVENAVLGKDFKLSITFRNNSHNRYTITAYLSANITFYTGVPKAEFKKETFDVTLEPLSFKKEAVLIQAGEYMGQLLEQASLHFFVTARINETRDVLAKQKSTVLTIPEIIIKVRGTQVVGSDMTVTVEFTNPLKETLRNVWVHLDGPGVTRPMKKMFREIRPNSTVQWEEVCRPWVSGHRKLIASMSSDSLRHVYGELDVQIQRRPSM

[1] = target: T2, recombinant human tissue transglutaminase (His6-rh-TG2) (Homo sapiens, UniProt P21980); test: Inactivation of human tissue transglutaminase, fluorescence assay, IC50; conditions: 5 min preincubation, 37° C.
T2 sequence (P21980 1-687): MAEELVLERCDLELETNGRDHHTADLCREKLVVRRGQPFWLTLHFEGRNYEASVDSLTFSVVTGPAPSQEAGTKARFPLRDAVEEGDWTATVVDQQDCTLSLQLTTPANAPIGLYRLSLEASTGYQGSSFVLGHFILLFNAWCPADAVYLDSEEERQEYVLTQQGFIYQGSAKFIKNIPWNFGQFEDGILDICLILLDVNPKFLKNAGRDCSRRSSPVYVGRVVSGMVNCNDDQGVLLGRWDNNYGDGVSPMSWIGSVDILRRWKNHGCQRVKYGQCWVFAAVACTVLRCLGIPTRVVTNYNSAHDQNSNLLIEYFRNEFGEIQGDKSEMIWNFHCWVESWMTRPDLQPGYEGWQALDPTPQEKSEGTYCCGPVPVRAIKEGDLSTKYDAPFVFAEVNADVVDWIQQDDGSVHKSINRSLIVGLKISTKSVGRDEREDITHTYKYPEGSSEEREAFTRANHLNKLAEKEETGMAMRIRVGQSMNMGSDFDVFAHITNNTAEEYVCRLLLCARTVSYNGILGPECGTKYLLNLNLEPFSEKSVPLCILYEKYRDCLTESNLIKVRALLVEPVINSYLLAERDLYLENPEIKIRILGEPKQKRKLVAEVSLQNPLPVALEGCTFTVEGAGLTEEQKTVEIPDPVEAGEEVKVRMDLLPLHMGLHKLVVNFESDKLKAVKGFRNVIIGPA
Protocol: 250 μg of lyophilized his-tagged recombinant human tissue transglutaminase (His6-rh-TG2) are reconstituted by the addition of 150 μl of water (resulting buffer 50 mM of NaH2PO4, 150 mM of NaCl, pH=8).
A 10 mM inhibitor stock solution in DMSO is prepared and diluted with buffer (50 mM of Tris-HCl, 10 mM of CaCl2, 5 mM of DTT, pH=7.5, respectively) to the 20-fold of the concentration desired for the inhibition mixture (at least 1/50 dilution resulting in 2% DMSO concentration).
900 μl of an assay solution composed of 55.56 mM of Tris, 11.11 mM of CaCl2, 0.11% PEG8000, 5.56 mM of DTT, 5.56 mM of glycine methyl ester and 50 μM of Abz-APE(CAD-DNP)QEA-OH, (patent number:), pH=7.5 are placed in a cuvette and brought to a temperature of 37° C. in the measuring cell of a spectrophotometer. 50 μl of the respective inhibitor solution are added to said solution (resulting in a concentration of less than 0.2% of DMSO in the mixture).
7 μl of the transglutaminase solution reconstituted above are diluted with 51 μl of buffer (50 mM of Tris, 100 mM of NaCl, 5 mM of DTT, pH=7.5). 50 μl of said enzyme solution (10 μg His6-rhTG2) are added to the assay solution containing the respective inhibitor concentration. The mixture is incubated for 5 min at 37° C. before the measurement is performed. λexc=313 nm and λem=418 nm, 15 min)
The resulting enzyme activity was measured by analyzing the slope of the straight line obtained by the increase in fluorescence.
DMSO is used instead of inhibitor stock solution in order to determine the non-inhibited enzyme activity. IC50 values are determined by plotting the resulting enzyme activity against the logarithm of the inhibitor concentration. IC50 is defined as the concentration of an inhibitor at which enzyme activity is reduced to 50% after 5 min of preincubation.

TG1 = target: T3, TG1 (Homo sapiens, UniProt P22735); test: Transglutaminase inhibition, IC50 at TG1
T3 sequence (P22735 1-817): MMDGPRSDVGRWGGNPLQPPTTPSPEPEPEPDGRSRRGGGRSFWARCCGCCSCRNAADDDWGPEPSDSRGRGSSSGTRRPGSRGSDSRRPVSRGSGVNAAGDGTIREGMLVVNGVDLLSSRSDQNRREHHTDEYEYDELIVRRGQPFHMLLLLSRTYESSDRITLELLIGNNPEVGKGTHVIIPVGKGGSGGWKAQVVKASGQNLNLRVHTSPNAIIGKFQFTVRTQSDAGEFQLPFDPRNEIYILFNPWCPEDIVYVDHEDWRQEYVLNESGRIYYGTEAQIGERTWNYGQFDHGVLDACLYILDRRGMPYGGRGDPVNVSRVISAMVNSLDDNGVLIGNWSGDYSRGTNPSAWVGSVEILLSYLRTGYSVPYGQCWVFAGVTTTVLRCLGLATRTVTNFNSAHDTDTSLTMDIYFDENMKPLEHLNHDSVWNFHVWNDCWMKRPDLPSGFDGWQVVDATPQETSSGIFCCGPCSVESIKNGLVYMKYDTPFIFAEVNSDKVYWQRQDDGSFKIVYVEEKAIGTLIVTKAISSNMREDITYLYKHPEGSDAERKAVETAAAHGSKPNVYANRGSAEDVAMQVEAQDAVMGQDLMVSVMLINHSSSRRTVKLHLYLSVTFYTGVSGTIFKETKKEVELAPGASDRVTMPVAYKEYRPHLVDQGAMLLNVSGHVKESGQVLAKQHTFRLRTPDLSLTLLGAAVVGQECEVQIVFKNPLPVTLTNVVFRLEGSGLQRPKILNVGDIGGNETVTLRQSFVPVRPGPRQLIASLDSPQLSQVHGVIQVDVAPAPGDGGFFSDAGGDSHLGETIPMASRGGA

Compound	IC50 (FXIII; Table 1) [µM]	IC50 ([1]; Table 1) [µM]	IC50 (TG1; Table 1) [µM]	IC50 (FXIII; Table 2) [µM]	IC50 ([1]; Table 2) [µM]	IC50 (TG1; Table 2) [µM]
CCOC(=O)/C=C/CC[C@H](NC(=O)OCc1ccccc1)C(=O)N[C@@H](CCC(N)=O)C(=O)N1CCC[C@H]1C(=O)N[C@@H](CC(C)C)C(=O)OC [Compound 2, N^α-benzyloxycarbonyl-{[(E)-(L)-6-amino-hept-2-ene-dicarboxylic acid]-1-ethanoyl}-L-glutaminyl-L-prolinyl-L-leucine methyl ester] (Cbz-[Nle(5E-ene,6-CO2Et)]QPL-OMe)	> 50	0.02	–	–	–	–
CCOC(=O)/C=C/CC[C@H](NC(=O)OCc1ccccc1)C(=O)N[C@@H](Cc1ccccc1)C(=O)OC [Compound 3, N^α-benzyloxycarbonyl-{[(E)-(L)-6-amino-hept-2-ene-dicarboxylic acid]-1-ethanoyl}-L-phenylalanine methyl ester]	2.5	8	0.2	–	–	–
COC(=O)[C@H](CC(C)C)NC(=O)[C@@H]1CCCN1C(=O)[C@H](CCC(N)=O)NC(=O)[C@H](CC/C=C/S(C)(=O)=O)NC(=O)OCc1ccccc1 [Compound 3.2.1, N^α-benzyloxycarbonyl-{[(E)-(L)-2-amino-6-methanesulfonyl]-hex-5-enyl}-L-glutaminyl-L-prolinyl-L-leucine methyl ester]	–	–	–	> 100	0.054	0.25
COC(=O)[C@H](CC(C)C)NC(=O)[C@@H]1CCCN1C(=O)[C@H](CCC(N)=O)NC(=O)[C@H](CC/C=C/S(=O)(=O)N(C)C)NC(=O)OCc1ccccc1 [Compound 3.2.2]	–	–	–	> 100	0.76	1.3
COC(=O)[C@H](CC(C)C)NC(=O)[C@@H]1CCCN1C(=O)[C@H](CCC(N)=O)NC(=O)[C@H](CCC1=CC(=O)CC1)NC(=O)OCc1ccccc1 [Compound 3.2.3, N^α-benzyloxycarbonyl-[(L)-2-amino-4-(3)-oxo-cyclopent-1-enyl]-butyryl-L-glutaminyl-L-prolinyl-L-leucine methyl ester]	–	–	–	> 100	18	14
COC(=O)[C@H](CC(C)C)NC(=O)[C@@H]1CCCN1C(=O)[C@H](CCC(N)=O)NC(=O)[C@H](CC/C=C1\CCOC1=O)NC(=O)OCc1ccccc1 [Compound 3.2.4, N^α-benzyloxycarbonyl[(L)-2-amino-5-(2-oxo-dihydrofurane-(3E)-ylidene)]-pentanoyl-L-glutaminyl-L-prolinyl-L-Ieucine methyl ester]	–	–	–	> 100	8.9	0.4
COC(=O)C(CC(C)C)NC(=O)C1CCCN1C(=O)C(CCC(N)=O)NC(=O)C(CCC=CC(=O)O)NC(=O)OCc1ccccc1 [Compound 3.2.5, N^α-benzyloxycarbonyl)-[(E)-(L)-6-amino-hept-2-ene-dicarboxylic acid]-L-glutaminyl-L-prolinyl-L-leucine methyl ester]	–	–	–	> 100	23	–
CCCCCNC(=O)/C=C/CC[C@H](NC(C)=O)C(=O)N[C@@H](CCC(N)=O)C(=O)N[C@@H](CC(=O)O)C(=O)N1CCC[C@H]1C(=O)OC [Compound 3.2.6, Nr-acetyl-{[(E)-(L)-6.amino-hept-2-ene-dicarboxylic acid]-1-pentylamido}-L-glutaminyl-L-asparatyl-L-proline methyl ester]	–	–	–	> 100	> 100	23
CC(C)OC(=O)C=CCCC(NC(=O)OCc1ccccc1)C(=O)NC(Cc1ccc(F)cc1)C(=O)N1CCCC1C(=O)O [Compound 3.2.7, N^α-benzyloxycarbonyl)-{[(E)-(L)-6-amino-hept-2-ene-dicarboxylic acid]-1-isopropanoyl}-L-(p-fluoro-phenylalaninyl)-L-proline]	–	–	–	> 100	1.5	3.7
CC(C)CC(NC(=O)C1CCCCN1C(=O)C(Cc1ccccc1)NC(=O)C(CCC=CC(=O)OCc1ccccc1)NC(=O)OCc1ccccc1)C(N)=O [Compound 3.2.8, N^α-benzyloxycarbonyl)-{[(E)-(L)-6-amino-hept-2-ene-dicarboxylic acid]-1-benzoyl}-L-phenylalaninyl-L-homoprolinyl-L-leucinyl amide]	–	–	–	> 100	0.13	0.825
CCOC(=O)C(=O)/C=C/CC[C@H](NC(=O)OCc1ccccc1)C(=O)N[C@@H](Cc1ccccc1)C(=O)OC [Compound 3.2.9]	–	–	–	> 100	3.8	0.53
COC(=O)/C=C/CC[C@H](NC(=O)OCc1ccccc1)C(=O)N[C@@H](CCC(N)=O)C(=O)N1CCC[C@H]1C(=O)OC [Compound 4, N^α-benzyloxycarbonyl-{[(E)-(L)-6-amino-hept-2-ene-dicarboxylic acid]-1-methanoyl}-L-glutaminyl-L-proline methyl ester]	> 50	0.35	–	–	–	–
CCOC(=O)/C=C/CC[C@H](NC(=O)OCc1ccccc1)C(=O)N[C@H](C(=O)N1CCC[C@H]1C(=O)NCCC(C)C)C(C)C [Compound 5]	> 50	0.125	–	–	–	–
CCOC(=O)/C=C/CC[C@@H](C(=O)N[C@H](C(=O)N1CCC[C@H]1C(=O)OC)C(C)C)N1CCCC1=O [Compound 6, [(E)-(L)-6-(2-oxo-pyrrolidon-1-yl)-hept-2-ene-dicarboxylic acid 1-ethanoyl]-L-valinyl-L-proline methyl ester]	> 50	15	–	–	–	–

Reference: patent US8471063B2, “Michael systems as transglutaminase inhibitors” (Zedira GmbH, priority 2006, dated 2013)
